Data reported in ChEMBL document CHEMBL4261602, “Tri-armed ligands of G-quadruplex on heteroarene-fused anthraquinone scaffolds: Design, synthesis and pre-screening of biological properties” (Eur J Med Chem, 2018).

Assays:
[1] = Selectivity ratio of Kb for human FAM-5'-d(AGGGTTAGGGTTAGGGTTAGGG)-3'-BHQ1 telomeric G4 quadruplex DNA to Kb for d(CAATCGGATCGAATTCGATCCGATTG) DNA (unknown origin)
[2] = test system: CCRF-CEM; test: Antiproliferative activity in human CEM cells after 72 hrs by MTT assay; format: functional, cell-based
[3] = test system: Quadruplex DNA; test: Stabilization of human FAM-5'-d(AGGGTTAGGGTTAGGGTTAGGG)-3'-BHQ1 telomeric G4 quadruplex DNA assessed as change in melting temperature at 1 uM by FRET assay; format: nucleic-acid assay
[4] = test system: HeLa; test: Antiproliferative activity in human HeLa cells after 72 hrs by MTT assay; format: functional, cell-based
[5] = test system: Quadruplex DNA; test: Stabilization of human FAM-5'-d(AGGGTTAGGGTTAGGGTTAGGG)-3'-BHQ1 telomeric G4 quadruplex DNA assessed as change in melting temperature at 1 uM in presence of 50 fold excess of competitor ds26 oligonucleotide DNA by FRET assay; format: nucleic-acid assay
[6] = Drug uptake in human K562 cells at 1 uM within 15 mins by flow cytometry analysis; format: ADME, cell-based; details: k562, 0.25 h
[7] = test system: Quadruplex DNA; test: Stabilization of human FAM-5'-d(AGGGTTAGGGTTAGGGTTAGGG)-3'-BHQ1 telomeric G4 quadruplex DNA assessed as binding constant at 1 uM by FRET assay; format: nucleic-acid assay
[8] = test system: L1210; test: Antiproliferative activity in mouse L1210 cells after 48 hrs by MTT assay; format: functional, cell-based; details: L1210, 48 h
[9] = Stabilization of d(CAATCGGATCGAATTCGATCCGATTG) DNA (unknown origin) assessed as binding constant at 1 uM by FRET assay

Structure (SMILES)	Selectivity ratio [1]	IC50 [2]	ΔTm [3]	IC50 [4]	ΔTm [5]	Drug uptake [6]	Kb [7]	IC50 [8]	Kb [9]
N=C(N)NCCCNC(=O)c1cc2c(NCCNC(=N)N)c3c(c(NCCNC(=N)N)c2s1)C(=O)c1ccccc1C3=O	1300	13 µM	20.5 °C	15 µM	19 °C	Active	40 ×10⁶ /M	13 µM	0.03 ×10⁶ /M
N=C(N)NCCCNC(=O)c1cc2c(NCCCNC(=N)N)c3c(c(NCCCNC(=N)N)c2s1)C(=O)c1ccccc1C3=O	1700	11 µM	22 °C	18 µM	17 °C	–	47 ×10⁶ /M	10 µM	0.03 ×10⁶ /M
N=C(N)NCCCNC(=O)c1cc2c(NCCCCN)c3c(c(NCCCCN)c2s1)C(=O)c1ccccc1C3=O	2500	16 µM	22 °C	11 µM	18 °C	–	45 ×10⁶ /M	12 µM	0.02 ×10⁶ /M
N=C(N)NCCCNc1c2c(c(NCCCNC(=N)N)c3sc(C(=O)NCCNC(=N)N)cc13)C(=O)c1ccccc1C2=O	–	12 µM	21 °C	17 µM	21 °C	–	44 ×10⁶ /M	9 µM	–
N=C(N)NCCCNC(=O)c1cc2c(NCCCNC(=N)N)c3c(c(NCCCNC(=N)N)c2o1)C(=O)c1ccccc1C3=O	4550	17 µM	25 °C	17 µM	24 °C	–	91 ×10⁶ /M	18 µM	0.02 ×10⁶ /M
N=C(N)NCCCNC(=O)c1cc2c(NCCOCCN)c3c(c(NCCOCCN)c2s1)C(=O)c1ccccc1C3=O	950	11 µM	20 °C	9 µM	14 °C	–	29 ×10⁶ /M	10 µM	0.03 ×10⁶ /M
N=C(N)NCCNC(=O)c1cc2c(NCCNC(=N)N)c3c(c(NCCNC(=N)N)c2o1)C(=O)c1ccccc1C3=O	2300	12 µM	21.3 °C	14 µM	20.3 °C	–	46 ×10⁶ /M	9 µM	0.02 ×10⁶ /M
N=C(N)NCCCNC(=O)c1cc2c(NCCCCCN)c3c(c(NCCCCCN)c2s1)C(=O)c1ccccc1C3=O	2800	21 µM	21 °C	12 µM	18 °C	Active	38 ×10⁶ /M	19 µM	0.01 ×10⁶ /M
N=C(N)NCCCNC(=O)c1cc2c(NCCCCCN)c3c(c(NCCCCCN)c2o1)C(=O)c1ccccc1C3=O	1500	15 µM	18 °C	14 µM	15 °C	–	22 ×10⁶ /M	17 µM	0.01 ×10⁶ /M
N=C(N)NCCNC(=O)c1cc2c(NCCCCCN)c3c(c(NCCCCCN)c2o1)C(=O)c1ccccc1C3=O	850	18 µM	18 °C	11 µM	13 °C	–	22 ×10⁶ /M	19 µM	0.03 ×10⁶ /M
N=C(N)NCCNC(=O)c1cc2c(NCCNC(=N)N)c3c(c(NCCNC(=N)N)c2s1)C(=O)c1ccccc1C3=O	300	16 µM	20 °C	18 µM	10 °C	–	33 ×10⁶ /M	12 µM	0.1 ×10⁶ /M
N=C(N)NCCNc1c2c(c(NCCNC(=N)N)c3sccc13)C(=O)c1ccccc1C2=O	60	–	11 °C	13 µM	1 °C	Active	6 ×10⁶ /M	–	0.1 ×10⁶ /M
